Bounds are passed on as bounds.

Take `Cn1cc(-c2cnccn2)cc(Cl)c1=O`: the melting point (usually the temperature of the solid-liquid transition) fell in the range of 197 to 198 °C.
Under `N#CC(c1ccc(Cl)c(C(F)(F)F)c1)N1CCOCC1` (stereo not given) stands 73 to 74 °C; under `Cc1ccc(S(=O)(=O)OCC2Cc3cccc([N+](=O)[O-])c3O2)cc1` (stereo not given), 129 to 131 °C.
The value for `COc1ccc(-c2nc(CNC(=O)C3=NNC(=O)CC3)sc2-c2ccc(OC)cc2)cc1` was 174 to 175 °C; that for `CC(COc1ccc(CC2SC(=O)NC2=O)cc1)NCC(O)Cc1ccccc1` (stereo not given) was 145 to 152 °C.
The value for `O=S(=O)(NCCc1ccc(CN2CCCCC2)cc1)c1ccc(Br)cc1` was 109 to 110 °C; that for `CC(=O)N(C(C)=O)c1cscn1` was 55 °C; that for `CC(C#N)c1cc([N+](=O)[O-])ccc1F` (stereo not given) was 55 to 56 °C.
For the compound `CCCCNS(=O)(=O)c1cc(C(=O)OCC)cc(NCc2ccccc2)c1Oc1ccccc1`, the melting point was in the range of 149 to 150 °C.
For `CN1CCN(CC(=O)N2c3ccccc3N(C)C(=O)c3cncnc32)CC1`, the melting point lay within 183 to 185 °C.
The value for `CC(=O)CCCNC(=O)c1c2ccc(Cl)cc2c(-c2ccccc2)n1C` was 128 to 131 °C.
The value for `Cc1ccnc(-c2ccoc2)c1OC1SCC(O)C(O)C1O` (stereo not given) was 95 °C; that for `OC1CC(c2ccccc2)C(c2ccccc2)(c2ccc(OCCN3CCOCC3)cc2)O1` (stereo not given) was 150 to 153 °C.
Under `CS(=O)(=O)Nc1cc2oc(NC=O)cc(=O)c2cc1Oc1ccccc1` stands 214 to 216 °C.
Compound `COC(=O)CCCn1sc(Cl)cc1=O` yielded a melting point of 54 to 56 °C.
Under `Cc1c(NC(=O)CC(CSC(=O)[C@@H](C)NC(=O)C2CCCCC2)c2ccccc2)cccc1C(=O)O` (stereo not given in full) stands 175 to 180 °C; under `Clc1ccc(C2=NNC(c3cccnc3)S2)cc1` (stereo not given), 106 to 108 °C; under `COc1cn(-c2ccccc2F)nc(C(=O)N(C)OC)c1=O`, 152 to 154 °C.
The value for `Cc1c(S(=O)(=O)c2ccc(=O)[nH]n2)oc2ccccc12` was 182 to 183 °C; that for `N#CC(=NO)c1c(Cl)cccc1Cl` was 94 to 96 °C; that for `Cc1cc2c(c(C)c1C)OCC2` was below 50 °C.
Under `O=c1[nH]nc(-c2sc3ccccc3c2Cl)o1` stands 218 to 220 °C.
Regarding `CCCCN(CCCC)CCN=c1sc2ccccc2s1`, the melting point was 122 to 123 °C.
For `CC(=O)NN(C(C)=O)[C@@H]1c2cc(C#N)ccc2OC(C)(C)[C@H]1O` (relative stereo), the melting point lay in the range of 206 to 207 °C.
`N#Cc1c(Cl)c(Cl)n(CCl)c1-c1ccc(Cl)c(Cl)c1` yielded a melting point of 153 to 156 °C.
As for `CN(C)C12CC3CC(CC(O)(C3)C1)C2`, the melting point lay in the range of 60 to 64 °C.
Under `C(=CCN(Cc1ccccc1)Cc1ccccc1)CN(Cc1ccccc1)Cc1ccccc1` stands 114 to 115 °C; under `O=C(CCOCCOCCC(=O)Oc1cc(O)cc(O)c1)Oc1cc(O)cc(O)c1`, 166 to 168 °C; under `CN1CCN(c2cccc3ccc(Nc4ccccc4[N+](=O)[O-])cc23)CC1`, 87 to 94 °C.
`CC1ON(C)C(=O)C(C(=O)c2ccc(Cl)cc2[N+](=O)[O-])C1=O` (stereo not given) registered a melting point of 128 °C.
Under `O=C(O)CC1(O)CCc2c([nH]c3ccccc23)C1=O` (stereo not given) stands 156 to 157 °C.
`CCOc1ccccc1CNC(=O)[C@@H]1CCCN(c2cccc3c2C(=O)N(Cc2ccncc2)C3=O)C1` had a melting point of 194 to 195 °C.
On to `NC(=O)C1=NN(c2ccccc2)C(C(=O)O)=NN1c1ccccc1`, for which the melting point lay in the range of 241 to 242 °C.
For the compound `CCCCCCCCCCOc1cnc(-c2ccc(C#CCCCC(C)OC(C)=O)cc2)nc1` (stereo not given), the melting point was 57 to 58 °C.
The value for `O=[N+]([O-])OCC#CCO` was 107 to 110 °C.
Under `COC(=O)c1ccc(-c2ccc(-c3ccccc3)c(-c3ccc4c(c3)SCCC4(C)C)c2)cc1` stands 172 °C.
The value for `CCn1c(C)nc2cc(CN3CCN(C(c4ccccc4)c4ccccc4)CC3)ccc21` was 153 °C; that for `CC(=O)N1CCc2cc(CCN3CCC(c4noc5cc(F)ccc45)CC3)sc2C1` was 130 to 132 °C; that for `CCCCCCCCCCC#Cc1cccc([C@H]2O[C@@H]2CO)c1` was 41 to 42 °C.
`COC/C=C(C)/C=C/C(F)=C(C)/C=C/c1c(C)sc(C)c1C` returned a melting point of 117 to 118 °C.
Under `Cc1noc(C)c1-c1ccc2c(c1)ncc1ncn(-c3ccccc3C(C)(C)C)c12` stands 216 °C.
The value for `CCCc1nn(C)c2c(=S)[nH]c(-c3ccccc3OC)nc12` was 160 to 161 °C; that for `COc1ccccc1N1CCN(CCCCc2c[nH]c3ccccc23)CC1` was 113 to 115 °C.
Under `COc1ccc(-n2c(=O)cc(C(F)(F)F)n(N)c2=O)cc1` stands 176 to 178 °C; under `CC1(C)CN=C2N(C1)c1ccc(Br)cc1C21OCCCO1`, 151 to 153 °C.
`O=C(OCCN1CCCC1)c1ccccc1Nc1ccnc2cc(Cl)ccc12` displayed a melting point of 102 to 104 °C.
Take `COC(=O)N1C[C@@H]2CN(c3ccc(N4C[C@H](CNC(C)=O)OC4=O)cc3F)C[C@@H]2C1`: the melting point fell in the range of 128 to 132 °C.
Under `N#Cc1ccc(-c2ccn(-c3ccc(C#N)cc3)c2)cc1` stands 234 to 240 °C.
Under `N#Cc1ccccc1OCCCC(=O)O` stands 127 to 128 °C.
Under `COc1nc(Oc2ccccc2C(=O)O)nc(N(C)C)n1` stands 148 to 149 °C; under `O=C1SC(Cc2ccc(OCCON=Cc3cnc4ccccc4c3)cc2)C(=O)N1C(c1ccccc1)(c1ccccc1)c1ccccc1` (stereo not given), 127 to 130 °C.
As to `CN1CCN(CCCNc2ncc3c(n2)-c2ccccc2C(c2ccc(Cl)c(Cl)c2)C3)CC1` (stereo not given), the melting point was in the range of 135 to 136 °C.
Under `Nc1cccc(-n2c(=O)c(CCC(O)c3ccncc3)cc3cccnc32)c1` (stereo not given) stands 209 to 211 °C; under `CCNCN1CN=C(c2ccc(OC)c(OC)c2)c2cc(OC)c(OC)cc21`, 128 to 130 °C.
Compound `CCOC(=O)c1c(Cl)nc2cc(F)c(F)cc2c1CCl` returned a melting point of 264 °C.
Consider `CC1(C(F)(F)F)CCCN1C(=O)c1c(F)cccc1F` (stereo not given), for which the melting point lay within 119 to 120 °C.
Under `CCOC(=O)NNc1ccnc2c(NC(=O)c3c(Cl)cccc3Cl)cccc12` stands 151 to 155 °C; under `COC=C(C(=O)OC)c1csc2ccc(CBr)cc12`, 124 to 125 °C; under `COc1ccc(Oc2ccc3ccc(N)nc3n2)cc1`, 200 °C.
In turn, `O=c1[nH]c2cc(F)c(Br)c([N+](=O)[O-])c2[nH]c1=O` gave a melting point of 323 to 327 °C.
Under `Cc1cccc(C(=O)O)c1OC(=O)C=Cc1ccccc1` stands 141 to 142 °C; under `Cc1ccc(N2N=C3c4cc(C)sc4CCCC3CC2=O)cc1` (stereo not given), 117 to 119 °C; under `CN(Cc1ccccc1)C(=O)c1cnc2c3c(c(F)cc2c1)C(=O)C(C(=O)O)C=N3` (stereo not given), 168 to 171 °C.
As for `Cc1ccc(OC(=O)C=Cc2ccc([N+](=O)[O-])cc2)cc1`, the melting point was in the range of 168 to 170 °C.
The value for `NS(=O)(=O)c1cccc(-c2cc(-c3nc(-c4ccc(C(F)(F)F)cc4)cc(C(F)(F)F)n3)ccn2)c1` was 237 °C; that for `CC(C)Oc1ccc(-c2nc(-c3ccc(OC(C)C)cc3O)nc(-c3ccc(OC(C)C)cc3O)n2)c(O)c1` was 122 °C.
The value for `CCCCCCCCSc1nc2ccccc2[nH]1` was 110 to 113 °C; that for `CCCc1ccc2nc(SCC)c(S(N)(=O)=O)n2n1` was 176 to 177 °C; that for `O=C(O)[C@H](COCc1ccccc1)NC1(c2ccccc2)c2ccccc2-c2ccccc21` was 137 to 138 °C.
`CCCC(=O)NN=C(C)c1ccncc1Cl` gave a melting point of 104 °C.
The value for `CCOC(=O)c1cnc2c(SC(=O)N(C)C)cccn2c1=O` was 133 to 134 °C; that for `Cc1oc(-c2ccc(Cl)cc2)nc1CC(=O)O` was 160 to 161 °C; that for `CN1CCC(=O)N(c2ccccc2Cl)C1=O` was 120 to 123 °C.
Compound `CN1CCc2cc(Cl)c(N)cc2[C@@H](c2ccccc2)C1` returned a melting point of 68 to 70 °C.
The value for `C=Cc1ccc(-c2ccc3cc(C(=O)OCc4ccccc4)ccc3c2)cc1C12CC3CC(CC(C3)C1)C2` was 158 to 160 °C; that for `Cc1[nH]nc(C(=O)NC2CCCC2)c1NC(=O)c1cnccn1` was 170 to 171 °C.
Under `Cc1cc(C)c2nc(C3CC3)n(Cc3ccc(C(CC(=O)O)c4ccccc4)cc3)c2n1` (stereo not given) stands 189 to 190 °C; under `C[C@@H](Cc1c2n(c3ccc(O)cc13)CCC2)NC(=O)OC(C)(C)C`, 135 to 136 °C.
The value for `CNC(=O)C(C(F)F)C(C)(C)C=NO` (stereo not given) was 53 to 58 °C; that for `Cc1sc2c(Br)c3ccccc3c(-c3ccc(O)c([N+](=O)[O-])c3)c2c1C` was 183 to 185 °C; that for `Nn1c(=O)c(-c2cccs2)nc2ccccc21` was 164 °C.
`O=C(CC1CC1)N[C@H]1CC[C@H](CCN2CCC(c3cccc4c3CCO4)CC2)CC1` yielded a melting point of 189 °C.
Under `CNS(=O)(=O)c1ccccc1Nc1nc(Nc2ccc3c(c2)CCCC(=O)N3CC(=O)O)ncc1Cl` stands 192 to 195 °C; under `COC(=O)[C@@H]1Cc2cc(OC)c(O)cc2C(=O)N1`, 280 to 285 °C.
The value for `COc1c(N)ccc2c1C(=CC#N)CC2` was 140 to 142 °C; that for `O=C(O)C1=CS[C@@H]2/C(=C\c3ccc4nc5sccn5c4c3)C(=O)N12` was above 250 °C.
The value for `COC(=O)Cc1ccc(S(C)(=O)=O)c(Cl)c1` was 54 to 57 °C; that for `CS(=O)(=O)c1ccc(/C(=C2\N=C(c3ccccc3)OC2=O)c2ccc(Cl)cc2)cc1` was 226 °C.
`CCOC(=O)C(=O)Nc1cc(C)ccc1[N+](=O)[O-]`: the melting point was 114 °C.
The value for `NNC1CCC(c2ccccc2F)c2cc(Cl)ccc2N1` (stereo not given) was 213 to 215 °C.
